Values quoted from earlier work as cited in paper PMC8287861 (Frontiers in Microbiology, 2021).
In brackets after ≈: the same amount, converted by molar mass. Read-outs that look alike come from different tables or passages of the source.

Assays:
VIM-1 [1] = tested on: VIM-1; set-up: method as in Tsivkovski et al. (2020); settings: VIM-1, class B; ref Tsivkovski et al. (2020)
P99 [2] = tested on: P99; set-up: method as in Tsivkovski et al. (2020); settings: P99, class C; ref Tsivkovski et al. (2020)
KPC-2 [3] = tested on: KPC-2
OXA-48 [4] = tested on: OXA-48; set-up: method as in Tsivkovski et al. (2020); settings: OXA-48, class D; ref Tsivkovski et al. (2020)
IMP-26 = tested on: IMP-26; set-up: method as in Tsivkovski et al. (2020); settings: class B, ref Tsivkovski et al. (2020)
NDM-1 = tested on: NDM-1; set-up: method as in Tsivkovski et al. (2020); settings: class B, ref Tsivkovski et al. (2020)
SHV-12 [5] = settings: SHV-12, class A; ref Tsivkovski et al. (2020)
KPC-2 [6] = tested on: KPC-2; set-up: method as in Tsivkovski et al. (2020); settings: KPC-2, class A; ref Tsivkovski et al. (2020)
CTX-M-14 = tested on: CTX-M-14; set-up: method as in Tsivkovski et al. (2020); settings: CTX-M-14, class A; ref Tsivkovski et al. (2020)
CTX-M-15 [7] = tested on: CTX-M-15; set-up: method as in Tsivkovski et al. (2020); settings: CTX-M-15, class A; ref Tsivkovski et al. (2020)
IMP-1 [8] = tested on: IMP-1; set-up: method as in Tsivkovski et al. (2020); settings: class B, ref Tsivkovski et al. (2020)
P99 [9] = biological target: P99; set-up: method as in Tsivkovski et al. (2020); settings: ref Tsivkovski et al. (2020)
[10] = set-up: method as in Hecker et al., 2020; settings: rats, doses of 30–100 mg/kg; ref Hecker et al., 2020
[11] = tested on: carbapenem-resistant strains of Enterobacterales (CRE); set-up: method as in Nelson et al. (2020a); settings: with meropenem, ref Nelson et al. (2020a)
[12] = tested on: Acinetobacter baumannii mutants producing OXA-23; set-up: method as in Lomovskaya et al., 2020a; settings: overexpression of efflux pumps; ref Lomovskaya et al., 2020a
BKC-1 = biological target: BKC-1; set-up: method as in Tsivkovski et al. (2020); settings: ref Tsivkovski et al. (2020)
TEM-43 = biological target: TEM-43; set-up: method as in Tsivkovski et al. (2020); settings: ref Tsivkovski et al. (2020)
SHV-12 [13] = biological target: SHV-12; set-up: method as in Tsivkovski et al. (2020); settings: ref Tsivkovski et al. (2020)
OXA-23 [14] = tested on: OXA-23; set-up: method as in Tsivkovski et al. (2020); settings: OXA-23, class D; ref Tsivkovski et al. (2020)
[15] = set-up: method as in Sabet et al., 2020; settings: plasma QPX7728 exposure associated with 8 μg/ml; ref Sabet et al., 2020
VIM-1 [16] = biological target: VIM-1; set-up: method as in Tsivkovski et al. (2020); settings: ref Tsivkovski et al. (2020)
KPC-3 = biological target: KPC-3; set-up: method as in Tsivkovski et al. (2020); settings: ref Tsivkovski et al. (2020)
OXA-58 = biological target: OXA-58; set-up: method as in Tsivkovski et al. (2020); settings: ref Tsivkovski et al. (2020)
[17] = tested on: carbapenem resistant Acinetobacter baumannii; settings: in combination with meropenem; majority of the subsets of strains; ref Nelson et al., 2020b
[18] = tested on: ESBL and CRE producing strains of Enterobacterales; set-up: method as in Nelson et al. (2020a; 2020b); settings: ref Nelson et al. (2020a; 2020b)
CTX-M-15 [19] = biological target: CTX-M-15; set-up: method as in Tsivkovski et al. (2020); settings: ref Tsivkovski et al. (2020)
[20] = tested on: isogenic strains of P. aeruginosa that produced KPC; set-up: method as in Lomovskaya et al., 2020a; settings: ref Lomovskaya et al., 2020a; for PV50: potency to enhance biapenem activity;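 on PV50: read from a curve of biapenem MIC plotted against inhibitor concentration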
OXA-23 [21] = biological target: OXA-23; set-up: method as in Tsivkovski et al. (2020); settings: ref Tsivkovski et al. (2020)
[22] = tested on: KPC-producing porin/efflux mutants of K. pneumoniae; settings: ref Lomovskaya et al.
IMP-1 [23] = biological target: IMP-1; set-up: method as in Tsivkovski et al. (2020); settings: ref Tsivkovski et al. (2020)
SME-2 = biological target: SME-2; set-up: method as in Tsivkovski et al. (2020); settings: ref Tsivkovski et al. (2020)
OXA-48 [24] = biological target: OXA-48; set-up: method as in Tsivkovski et al. (2020); settings: ref Tsivkovski et al. (2020)
OXA-24 = biological target: OXA-24; set-up: method as in Tsivkovski et al. (2020); settings: ref Tsivkovski et al. (2020)
FRI-1 = biological target: FRI-1; set-up: method as in Tsivkovski et al. (2020); settings: ref Tsivkovski et al. (2020)
[25] = set-up: method as in Hecker et al., 2020; settings: ref Hecker et al. (2020)
[26] = inactivation of OmpK35 and OmpK36 and increased efflux, 2020a
[27] = same mutations (OmpK35, OmpK36, increased efflux), 2017

NC(=O)[C@@H]1CC[C@@H]2CN1C(=O)N2OS(=O)(=O)O [Avibactam, avibactam]
IC50 (VIM-1 [1]): > 160000 nM
IC50 (P99 [2]): 26 ± 7 nM
residence time (KPC-2 [3]; ref Ehmann et al., 2013): ~2 h
IC50 (IMP-26): > 160000 nM
IC50 (NDM-1): > 160000 nM
IC50 (SHV-12 [5]): 0.61 ± 0.19 nM
IC50 (CTX-M-14): 1.4 ± 0.4 nM
IC50 (CTX-M-15 [7]): 0.56 ± 0.25 nM
IC50 (IMP-1 [8]): > 160000 nM

O=C(O)c1c(F)ccc2c1OB(O)[C@@H]1C[C@H]21 [QPX7728]
IC50 (VIM-1 [1]): 14 ± 4 nM
Kd (P99 [9]): 0.53 ± 0.06 nM
oral bioavailability [10]: 43–53%
IC50 (P99 [2]): 22 ± 6 nM
Kd (KPC-2 [3]; ref Tsivkovski et al. (2020)): 0.25 ± 0.03 nM
IC50 (OXA-48 [4]): 1.1 ± 0.4 nM
TPC90 ([11]; 598 CRE, breakpoint of 8 μg/ml): 4 µg/mL
TPC90 ([11]; subsets with carbapenemase production and non-β-lactamase-mediated resistance mechanisms): 4 to 8 µg/mL
effect of efflux on potency to inhibit β-lactamase [12]: no effect of efflux on the potency
Kd (BKC-1): 0.06 ± 0.005 nM
IC50 (SHV-12 [5]): 1.9 ± 0.6 nM
Kd (TEM-43): 0.17 ± 0.02 nM
Kd (SHV-12 [13]): 28 ± 4 nM
IC50 (OXA-23 [14]): 1.2 ± 0.4 nM
IC50 (KPC-2 [6]): 2.9 ± 0.4 nM
IC50 (CTX-M-14): 0.94 ± 0.2 nM
efficacy of plasma exposure [15]: efficacious in animal models of infection
Kd (VIM-1 [16]; VIM-1 (text b23 calls it Ki)): 7.5 ± 2.1 nM
Ki (VIM-1 [16]; VIM-1, competitive inhibitor): ~7 nM
IC50 (CTX-M-15 [7]): 1.2 ± 0.1 nM
Kd (KPC-3): 0.31 ± 0.06 nM
Kd (OXA-58): 3.2 ± 0.3 nM
TPC90 [17]: less than or equal to 8 μg/ml
TPC90 ([18]; in combination with aztreonam at 8 μg/ml (FDA susceptible breakpoint)): 4 µg/mL
TPC90 ([18]; in combination with cefepime at 8 μg/ml (FDA susceptible breakpoint)): 4 µg/mL
Kd (CTX-M-15 [19]): 0.11 ± 0.02 nM
PV50 ([20]; PAM4126, mexR (MexAB-OprM)): 2 µg/mL
PV50 ([20]; PAM4129, nfxB (MexCD-OprJ)): 0.5 µg/mL
PV50 ([20]; PAM4132, mexT (MexEF-OprM)): 1 µg/mL
PV50 ([20]; PAM4150, mexZ (MexXY-OprM)): 1 µg/mL
PV50 ([20]; PAM4224, Wild-type): 1 µg/mL
PV50 ([20]; PAM4365, MexA::Tet): 1 µg/mL
reduction in potency ([20]; mexAB-oprM efflux operon overexpressed): No more than two-fold reduction in potency
effect of inactivation of the carbapenem porin OprD on potency [20]: did not have any effect
Kd (OXA-23 [21]): 1.6 ± 0.2 nM
potency to completely inhibit KPC ([22]; before porin/efflux mutations, 2020a): 0.125 µg/mL (≈ 0.563 µM)
potency to completely inhibit KPC [22, 26]: 4 µg/mL (≈ 18 µM)
reduction of the potency to completely inhibit KPC [22, 26]: ca. 32 fold
Kd (IMP-1 [23]; IMP-1 (text b23 calls it Ki)): 240 ± 30 nM
Ki (IMP-1 [23]; IMP-1, competitive inhibitor): ~240 nM
Kd (SME-2): 0.15 ± 0.02 nM
Kd (OXA-48 [24]): 0.13 ± 0.01 nM
Kd (OXA-24): 0.58 ± 0.1 nM
Kd (FRI-1): 0.11 ± 0.01 nM
IC50 (IMP-1 [8]): 610 ± 70 nM

COc1ccc2c(c1C(=O)O)OB(O)CC2 [RPX7610]
metabolic stability (in words) [25]: metabolic liability
effect of efflux and porin mutations (β-lactamases; ref Hecker et al. (2020)): minimally affected by efflux and porin mutations
β-lactamase inhibition (in words) (β-lactamases; ref Hecker et al. (2020)): potent inhibition of all target β-lactamases

O=C(NC1CCNCC1)[C@@H]1CC[C@@H]2CN1C(=O)N2OS(=O)(=O)O [Relebactam, relebactam]
IC50 (VIM-1 [1]): > 160000 nM
IC50 (P99 [2]): 36 ± 4 nM
residence time (KPC-2 [3]; ref Papp-Wallace et al., 2018): 1.5 h
IC50 (IMP-26): > 160000 nM
IC50 (NDM-1): > 160000 nM
IC50 (SHV-12 [5]): 330 ± 50 nM
IC50 (CTX-M-14): 34 ± 10 nM
IC50 (CTX-M-15 [7]): 76 ± 3 nM
IC50 (IMP-1 [8]): > 160000 nM

O=C(O)C[C@@H]1CC[C@H](NC(=O)Cc2cccs2)B(O)O1 [Vaborbactam, vaborbactam]
IC50 (VIM-1 [1]): > 160000 nM
IC50 (P99 [2]): 88 ± 38 nM
residence time (KPC-2 [3]; ref Tsivkovski and Lomovskaya, 2019): ~6 h
IC50 (IMP-26): > 160000 nM
IC50 (NDM-1): > 160000 nM
IC50 (SHV-12 [5]): 56 ± 11 nM
IC50 (KPC-2 [6]): 110 ± 30 nM
IC50 (CTX-M-14): 110 ± 40 nM
IC50 (CTX-M-15 [7]): 92 ± 13 nM
PV50 ([20]; PAM4126, mexR (MexAB-OprM)): 64 µg/mL
PV50 ([20]; PAM4129, nfxB (MexCD-OprJ)): 4 µg/mL
PV50 ([20]; PAM4132, mexT (MexEF-OprM)): >64 µg/mL
PV50 ([20]; PAM4150, mexZ (MexXY-OprM)): 8 µg/mL
PV50 ([20]; PAM4224, Wild-type): 8 µg/mL
PV50 ([20]; PAM4365, MexA::Tet): 0.5 µg/mL
reduction in potency ([20]; overproduction of the MexAB-OprM or the MexEF-OprN efflux pumps): ≥ 8 fold
potency to completely inhibit KPC ([22]; before porin/efflux mutations, 2017): 0.25 µg/mL (≈ 0.841 µM)
potency to completely inhibit KPC [22, 27]: 64 µg/mL (≈ 215 µM)
reduction of the potency [22, 27]: 256 fold
potency against other class A or class C beta lactamases compared to KPC enzymes (β-lactamases; fold less potent, ref Tsivkovski and Lomovskaya, 2019): 10–50 fold
IC50 (IMP-1 [8]): > 160000 nM
